Measurements as given in patent US11498929B2, “Chromenopyrimidine derivatives as phosphatidylinsitol phosphate kinase inhibitors” (Hibercell, Inc., priority 2019, dated 2022).

Tests used:
MOLM-16 = MOLM-16 EC50 assay; assay type: cell-based; conditions: MOLM16
[1] = biological target: T1, PIP4K2 B (GST-tagged PIP4KtypeIIB) (Homo sapiens, UniProt P78356); experiment: Kinase Assay - PIP4K2 B (inhibition of PIP4K2 B kinase assay); assay type: biochemical; conditions: compounds listed under IC50 bin headings
T1 construct: GST; made in house; host or cells: E. coli
T1 sequence (P78356 1-416): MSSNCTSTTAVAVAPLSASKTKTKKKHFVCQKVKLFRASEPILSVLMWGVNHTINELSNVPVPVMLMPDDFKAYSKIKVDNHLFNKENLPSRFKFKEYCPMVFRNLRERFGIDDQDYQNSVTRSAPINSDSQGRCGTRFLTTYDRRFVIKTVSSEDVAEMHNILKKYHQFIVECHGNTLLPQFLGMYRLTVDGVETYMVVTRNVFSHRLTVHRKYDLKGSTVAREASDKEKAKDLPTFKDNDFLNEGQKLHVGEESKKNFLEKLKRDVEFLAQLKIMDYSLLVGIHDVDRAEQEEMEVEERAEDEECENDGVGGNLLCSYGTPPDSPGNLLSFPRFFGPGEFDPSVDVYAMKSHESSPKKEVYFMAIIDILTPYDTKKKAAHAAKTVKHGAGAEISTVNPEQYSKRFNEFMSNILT
Source text: GST tagged PIP4KtypeIIA and B enzymes were overexpressed in E. Coli and purified to >80% homogeneity. Phosphatidyl inositol-5-phosphate (PI5P, Cat. #850152, Avanti Polar Lipids Inc.) was used as the lipid substrate and phosphatidyl ethanolamine (DOPE 18:1, Cat. #850725, Avanti Polar Lipids Inc.) was used as the carrier lipid for assays. Ultrapure ATP and GTP was purchased from Bellbrooke Labs. ADP Glo reagents were obtained from Promega. Transcreener FI reagent was obtained from Bellbrooke labs.
GST-tagged PIP4KtypeIIB (3.4 uL, 2.77 mg/mL) was diluted to 5 mL using HNE buffer to yield 5× enzyme stock (25 nM)
Lipid Preparation: In a 10 mL pyrex glass vial, 1 ug of PI5P and 1 ug of DOPE were suspended in 2.5 mL of HEPES buffer mix and 2.5 mL of H:E buffer. The contents were mixed and sonicated for 3 min to yield a translucent lipid stock.
Compound Preparation: Compounds were stored as 5 mM stocks in neat DMSO as room temperature in glass vials. 5 mM stocks were diluted to 2 mM and then serially diluted (3×) in neat DMSO in 96 well polypropylene plates. From the serially diluted stocks, 3 uL was delivered into 250 uL of 25% DMSO (in water) to generate 5× compound stocks. Typically, the highest compound conc. was 24 uM.
The assay volume was kept at 25 uL. To each well of the reaction plate, 10 uL of lipid stock (1:1 ratio PI5P:DOPE) was delivered. This was followed by the addition of 5 uL of compound in 25% DMSO. Then, to each well, 5 uL of 25 nM (5×) typeIIB enzyme was delivered. The contents were mixed well and incubated for 1 h at 27 C. After 1 h, reaction was initiated by adding 5 uL of 500 uM GTP and the contents were mixed well with a multi-channel pipetteman. The final concentration of the reagents are as follows: 50 mM HEPES, pH 7.3, 10 mM MgCl2, 20 mM NaCl, 0.01% v/v triton-X100, 5% DMSO, 100 uM GTP, 80 uM (2 ug) PI5P, 2 ug DOPE, and 5 nM PIP4KIIB Typically, the highest conc. of compounds was 4.8 uM and the lowest conc. was 0.
After 2 h, the reaction was quenched by adding 25 uL of transcreener FI reagent. The contents were incubated at RT for 1 h and the Fluorescence (Ex:584 Em: 623) was read using Molecular Devices Paradigm plate reader. […] The blanks were averaged and subtracted from all other wells. Using a calibration curve, RFU was converted to uM GDP (product). IC50 was calculated by plotting the residual activity (expressed as % No inhibitor control) vs. log [Inh. conc.]

PIP4K2A = biological target: T2, PIP4K2A (Homo sapiens, UniProt P48426); experiment: Kinase Assay - PIP4K2 A (inhibition of PIP4K2 A kinase assay); assay type: biochemical; conditions: compounds listed under IC50 bin headings
T2 construct: GST; made in house; host or cells: E. coli
T2 sequence (P48426 1-406): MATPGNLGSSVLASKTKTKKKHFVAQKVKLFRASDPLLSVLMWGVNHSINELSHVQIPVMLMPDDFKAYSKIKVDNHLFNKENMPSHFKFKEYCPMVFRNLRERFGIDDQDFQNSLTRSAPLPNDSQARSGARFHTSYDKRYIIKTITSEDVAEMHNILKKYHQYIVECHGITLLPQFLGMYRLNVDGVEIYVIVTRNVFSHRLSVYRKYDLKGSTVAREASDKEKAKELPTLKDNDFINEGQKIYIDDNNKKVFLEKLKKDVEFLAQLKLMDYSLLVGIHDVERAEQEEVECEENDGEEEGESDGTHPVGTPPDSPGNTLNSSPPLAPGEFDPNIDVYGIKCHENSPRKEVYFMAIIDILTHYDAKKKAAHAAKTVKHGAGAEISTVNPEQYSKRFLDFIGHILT
Description: Dilution series of the compounds were prepared in DMSO at 100 times the final assay concentration (n1=n0/3 in 10 points). The compounds were further diluted to three times the assay concentration in assay buffer (20 mM MOPS pH 7.2, 25 mM magnesium chloride, 0.005% Tween 20). 6 μL of the diluted compounds were added to a 384 well assay plate followed by 9 μL of a mix consisting of 4 nM PIP4K2A (full length protein, SignalChem) and 100 μM PI(5)P diC8 (Tebu-Bio). Enzyme and compounds were pre-incubated at room temperature for 15 minutes.
Then 3 μL of a solution containing 60 μM ATP (Promega) in assay buffer was added to the wells containing compound and enzyme and mixing was performed by pipetting several times. The reaction was incubated at room temperature for 1 h. Then 18 μL of ADP-Glo™ Reagent (Promega) was added to stop the kinase reaction and deplete the unconsumed ATP, mixing was performed by pipetting several times. The plate was incubated at room temperature for 40 minutes before addition of 36 μL of Kinase Detection Reagent (Promega) to convert ADP to ATP and introduce luciferase and luciferin to detect ATP. The reaction was incubated at room temperature for 40 minutes before the luminescence was measured in a in a Victor 3V 1420 multilabel counter (Perkin Elmer).
Percent inhibition of the compounds as compared to dimethyl sulfoxide treated control samples was calculated. Compound concentration versus percent inhibition were fitted to generate IC50 values. […]

Compound	EC50 (MOLM-16) [nM]	IC50 [1] [nM]	IC50 (PIP4K2A) [nM]
CCN(CC)CCNC(=O)N1CCOc2ncc(Nc3ncc4c(n3)C(C)(C)Oc3cc(N5CCCC5=O)ccc3-4)cc21 [Compound 1, N-[2-(diethylamino)ethyl]-7-{[5,5-dimethyl-8-(2-oxopyrrolidin-1-yl)-5H-chromeno[3,4-d]pyrimidin-3-yl]amino}-1H,2H,3H-pyrido[2,3-b][1,4]oxazine-1-carboxamide]	10 to 100	10 to 100	1 to 10
CC1(C)Oc2cc(N3CCCC3=O)ccc2-c2cnc(Nc3cnc4c(c3)N(C(=O)NCCN3CCOCC3)CCO4)nc21 [Compound 2, 7-{[5,5-dimethyl-8-(2-oxopyrrolidin-1-yl)-5H-chromeno[3,4-d]pyrimidin-3-yl]amino}-N-[2-(morpholin-4-yl)ethyl]-1H,2H,3H-pyrido[2,3-b][1,4]oxazine-1-carboxamide]	10 to 100	1 to 10	1 to 10
C[C@@H]1CCC(=O)N1c1ccc2c(c1)OC(C)(C)c1nc(Nc3cnc4c(c3)N(C(=O)CN(C)C)CCO4)ncc1-2 [Compound 3, (5R)-1-[3-({1-[2-(dimethylamino)acetyl]-1H,2H,3H-pyrido[2,3-b][1,4]oxazin-7-yl}amino)-5,5-dimethyl-5H-chromeno[3,4-d]pyrimidin-8-yl]-5-methylpyrrolidin-2-one]	10 to 100	1 to 10	1 to 10
CCN1CCN(Cc2cncc(Nc3ncc4c(n3)C(C)(C)Oc3cc(N5CCCC5=O)ccc3-4)c2)CC1 [Compound 4, 1-[3-({5-[(4-ethylpiperazin-1-yl)methyl]pyridin-3-yl}amino)-5,5-dimethyl-5H-chromeno[3,4-d]pyrimidin-8-yl]pyrrolidin-2-one]	10 to 100	100 to 1000	10 to 100
Cc1cnnn1-c1ccc2c(c1)OC(C)(C)c1nc(Nc3cnc4c(c3)N(C(=O)N(C)C)CCO4)ncc1-2 [Compound 5, 7-{[5,5-dimethyl-8-(5-methyl-1H-1,2,3-triazol-1-yl)-5H-chromeno[3,4-d]pyrimidin-3-yl]amino}-N,N-dimethyl-1H,2H,3H-pyrido[2,3-b][1,4]oxazine-1-carboxamide]	100 to 1000	1 to 10	≤ 1
Cc1cnnn1-c1ccc2c(c1)OC(C)(C)c1nc(Nc3cncc(N4CCN(CCO)CC4)c3)ncc1-2 [Compound 6, 2-[4-(5-{[5,5-dimethyl-8-(5-methyl-1H-1,2,3-triazol-1-yl)-5H-chromeno[3,4-d]pyrimidin-3-yl]amino}pyridin-3-yl)piperazin-1-yl]ethan-1-ol]	100 to 1000	1 to 10	≤ 1
CNC(=O)N1CCOc2ncc(Nc3ncc4c(n3)C(C)(C)Oc3cc(N5CCCC5=O)ccc3-4)cc21 [Compound 7, 7-{[5,5-dimethyl-8-(2-oxopyrrolidin-1-yl)-5H-chromeno[3,4-d]pyrimidin-3-yl]amino}-N-methyl-1H,2H,3H-pyrido[2,3-b][1,4]oxazine-1-carboxamide]	10 to 100	1 to 10	≤ 1
CNC(=O)N1CCOc2ncc(Nc3ncc4c(n3)C(C)(C)Oc3cc(N5C(=O)CC[C@H]5C)ccc3-4)cc21 [Compound 18, 7-({5,5-dimethyl-8-[(2R)-2-methyl-5-oxopyrrolidin-1-yl]-5H-chromeno[3,4-d]pyrimidin-3-yl}amino)-N-methyl-1H,2H,3H-pyrido[2,3-b][1,4]oxazine-1-carboxamide]	–	1 to 10	≤ 1
C[C@@H]1CCC(=O)N1c1ccc2c(c1)OC(C)(C)c1nc(Nc3cnc4c(c3)N(C(=O)NC3CC3)CCO4)ncc1-2 [Compound 20, N-cyclopropyl-7-({5,5-dimethyl-8-[(2R)-2-methyl-5-oxopyrrolidin-1-yl]-5H-chromeno[3,4-d]pyrimidin-3-yl}amino)-1H,2H,3H-pyrido[2,3-b][1,4]oxazine-1-carboxamide]	–	1 to 10	1 to 10
CCN(CC)CCOC(=O)N1CCOc2ncc(Nc3ncc4c(n3)C(C)(C)Oc3cc(N5CCCC5=O)ccc3-4)cc21 [Compound 21, 2-(diethylamino)ethyl 7-{[5,5-dimethyl-8-(2-oxopyrrolidin-1-yl)-5H-chromeno[3,4-d]pyrimidin-3-yl]amino}-1H,2H,3H-pyrido[2,3-b][1,4]oxazine-1-carboxylate]	–	10 to 100	1 to 10
CC1(C)Oc2cc(N3C(=O)CCC34CC4)ccc2-c2cnc(Nc3cccnc3)nc21 [Compound 24, 4-{5,5-dimethyl-3-[(pyridin-3-yl)amino]-5H-chromeno[3,4-d]pyrimidin-8-yl}-4-azaspiro[2.4]heptan-5-one]	100 to 1000	–	1 to 10
CCN(CC)CCN(C)c1cncc(Nc2ncc3c(n2)C(C)(C)Oc2cc(-n4nncc4C)ccc2-3)c1 [Compound 27, N3-[2-(diethylamino)ethyl]-N5-[5,5-dimethyl-8-(5-methyl-1H-1,2,3-triazol-1-yl)-5H-chromeno[3,4-d]pyrimidin-3-yl]-N3-methylpyridine-3,5-diamine]	100 to 1000	–	1 to 10
CC1(C)Oc2cc(N3CCCC3=O)ccc2-c2cnc(Nc3cncc(CN4CC(F)C4)c3)nc21 [Compound 28, 1-[3-({5-[(3-fluoroazetidin-1-yl)methyl]pyridin-3-yl}amino)-5,5-dimethyl-5H-chromeno[3,4-d]pyrimidin-8-yl]pyrrolidin-2-one]	–	100 to 1000	1 to 10
CC1(C)Oc2cc(N3CCCC3=O)ccc2-c2cnc(Nc3cncc(OCCN4CC(F)C4)c3)nc21 [Compound 30, 1-[3-({5-[2-(3-fluoroazetidin-1-yl)ethoxy]pyridin-3-yl}amino)-5,5-dimethyl-5H-chromeno[3,4-d]pyrimidin-8-yl]pyrrolidin-2-one]	–	100 to 1000	10 to 100
CNCCOc1cncc(Nc2ncc3c(n2)C(C)(C)Oc2cc(N4CCCC4=O)ccc2-3)c1 [Compound 34, 1-[5,5-dimethyl-3-({5-[2-(methylamino)ethoxy]pyridin-3-yl}amino)-5H-chromeno[3,4-d]pyrimidin-8-yl]pyrrolidin-2-one]	10 to 100	–	10 to 100
